The subject of one series is trauma patients. Conditions: early administration of a short course (Ker K. ibid.); cited from earlier work.
Series [1] deals with patients undergoing elective surgery. Particulars: 53 studies, 3836 participants (Ker K. et al. 2012); cited from earlier work.
For the next series, the target named is T1, uPA (Homo sapiens, UniProt P00749).
T1 construct: Single-chain urokinase (uPA) was purified, characterized as previously reported; made in house
Nature of the series: Plasminogen activator activity, chromogenic assay without fibrin, activation by uPA. The series is classed as biochemical. Conditions: plasminogen 500 nM, uPA 20 nM; mutants 100 nM or TA 200 nM alone; FIG. 2D. The protocol: Plasminogen Activator Activity
Plasminogen activator activity was determined by adding tPA (50 nM) or uPA (20 nM), to a reaction mixture containing Glu-plasminogen and the plasmin chromogenic substrate Spectrazyme PL (100 μM) in phosphate-buffered saline (PBS) at 37° C., and the light absorbance at 405 nm was measured continuously over time. The initial velocities of plasmin generation at the different conditions were calculated from the change in the A405 nm over time. The initial velocity of the reaction at each plasminogen concentration was obtained by calculating the change in the rate of A405 over different time intervals and the results were expressed as the change in optical density (ΔOD) per minute, which represents the slope of the initial velocity of plasminogen activation (Higazi A et al., J Biol Chem. (1995), 270(29):17375-80).

For series [2], the system named is tPA-/- and uPA-/- mice subjected to CHI. Nature of the series: Closed head injury (CHI) model in tPA-/- and uPA-/- mice. The format is in vivo, mouse. Conditions: 5 mg/kg each. The source says: (§1) Closed Head Injury (CHI) Model
(§2) Head trauma was induced by using a modified weight-drop device, as previously described (Chen Y. et al. (1996) J. Neurotrauma, 13:557-568). Briefly, after induction of ether anesthesia, a midline longitudinal incision was made, the skin was retracted and the skull was exposed. The left anterior frontal area was identified and a Teflon tipped cone (2-mm diameter) was placed 1 mm lateral to the midline, in the midcoronal plane. The head was held in place manually and a 75-g weight was dropped on the cone from a height of 18 cm, resulting in focal injury to the left hemisphere. After trauma, the mice received supporting oxygenation with 95% 02 for no longer than 2 min and were then returned to their cages. In sham controls only anesthesia and skin incision were carried out.

Another series relates to WT mice subjected to CHI. Nature of the series: Closed head injury (CHI) model of TBI in WT mice. The format is in vivo, mouse. Conditions: WT mice, IV immediately after or 2 hrs after CHI, Hgb at 2 or 8 hrs, MRI at 24 hrs. The protocol:
Eight to twelve weeks old C57 mice obtained from Harlan, Israel. Mice were administered standard laboratory chow and water ad libitum, and kept in controlled temperature and light conditions. Animal experiments were carried out according to the guidelines of the Hebrew University-Institutional Committee for Care and Use of Laboratory Animals, and with the committee's approval.
as §1, §2

In series [3] the test system is mice treated with Coumadin and subjected to CHI. Nature of the series: Closed head injury (CHI) in mice anticoagulated with warfarin (Coumadin). The format is in vivo, mouse. Conditions: for extent of ICH post CHI after anticoagulation: warfarin prior to CHI.
Description: as §1, §2

The values below come from patent publication US10188706B2, “Plasminogen activator mutants as anti-fibrinolytic agents” (HADASIT MEDICAL RESEARCH SERVICES & DEVELOPMENT LIMITED, priority 2012, dated 2019).

Entries after “also recorded” stand apart in the source; their conditions may differ.

With `NC[C@H]1CC[C@H](C(=O)O)CC1` [TA, tranexamic acid, reference compound], in the series with trauma patients, the “death, vascular occlusive events and frequency of blood transfusions” value is “reduced death, vascular occlusive events and the frequency of blood transfusions”. In addition, the “need for blood transfusion” value in series [1] is “reduced the need for blood transfusion by a third”. Moreover, the “plasminogen activation by uPA in the absence of fibrin (change in OD per minute)” value on uPA is reported as “dramatically stimulated; also recorded: mimics the effect of fibrin only in the case of uPA”.

In the case of “WT-tPA: wild type tissue plasminogen activator; recombinant tPA from Genentech”, in series [2], the “injury phenotype (ICH) of knock-out mice after exogenous plasminogen activator” value is given as “rescued”. In addition, the “intracerebral hemorrhage (MRI, extravasation of Hgb) post CHI” value is “increased the extent of intracerebral hemorrhage” in the series on WT mice subjected to CHI and “exacerbated” in the series with WT mice subjected to CHI (listed as WT tPA).

On to `CC(=O)CC(c1ccccc1)c1c(O)c2ccccc2oc1=O` (stereo not drawn) [warfarin], for which the entries for the “extent of ICH post CHI after anticoagulation” value in series [3] (WT mice) and in series [3] (tPA-/- or uPA-/- mice) were “increased the extent of ICH” and “had no such effect”, respectively. Further, the “mean INR at the time of trauma” value in series [3] (mice anticoagulated with warfarin prior to CHI) is 2.5.
